From PubChem BioAssay AID330 (DTP/NCI, 2004)
Several values for one entry are separate records, joined by “and”; a condition that tells them apart may be missing. Equal entries are not always repeated. Toxic doses and inconclusive results are not listed. The calls were made as follows: active = survival T/C of 150% or more; inactive = T/C below 125% in these data.

Test system: P388 leukemia ip, CD2F1 mice, survival T/C
Experiment: NCI In Vivo Anticancer Drug Screen. Data for tumor model P388 Leukemia (intraperitoneal) in CD2F1 (CDF1) mice
Details: endpoint: median survival time, higher = longer survival
Outline: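 Mice carrying the transplanted tumor received test compound or vehicle. Survival was recorded in each group, and the value is the treated-group measurement divided by that of the vehicle-treated control group.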

[1] = dose: 100.0 mg/kg/injection, schedule: Q04DX003 (ip), vehicle: saline
[2] = dose: 200.0 mg/kg/injection, schedule: Q04DX003 (ip), vehicle: saline
[3] = dose: 400.0 mg/kg/injection, schedule: Q04DX003 (ip), vehicle: saline
[4] = dose: 50.0 mg/kg/injection, schedule: Q01DX009 (ip), vehicle: Klucel (hydroxypropylcellulose) (HPC)
[5] = dose: 100.0 mg/kg/injection, schedule: Q01DX009 (ip), vehicle: Klucel (hydroxypropylcellulose) (HPC)
[6] = dose: 200.0 mg/kg/injection, schedule: Q01DX009 (ip), vehicle: Klucel (hydroxypropylcellulose) (HPC)
[7] = dose: 60.0 mg/kg/injection, schedule: Q01DX005 (ip), vehicle: saline
[8] = dose: 120.0 mg/kg/injection, schedule: Q01DX005 (ip), vehicle: saline
[9] = dose: 100.0 mg/kg/injection, schedule: Q01DX009 (ip), vehicle: saline
[10] = dose: 50.0 mg/kg/injection, schedule: Q01DX009 (ip), vehicle: saline with Tween-80
[11] = dose: 100.0 mg/kg/injection, schedule: Q01DX009 (ip), vehicle: saline with Tween-80
[12] = dose: 12.5 mg/kg/injection, schedule: Q01DX009 (ip), vehicle: Klucel (hydroxypropylcellulose) (HPC)
[13] = dose: 25.0 mg/kg/injection, schedule: Q01DX009 (ip), vehicle: Klucel (hydroxypropylcellulose) (HPC)

Measured: T/C

CCOP(O)(=S)OCC.[Fe]
inactive: dose: 25.0 mg/kg/injection, schedule: Q01DX001 (ip), vehicle: saline with Tween-80 89 % of control | dose: 33.0 mg/kg/injection, schedule: Q01DX001 (ip), vehicle: saline with Tween-80 96 % of control | dose: 50.0 mg/kg/injection, schedule: Q01DX001 (ip), vehicle: saline with Tween-80 94 % of control | dose: 50.0 mg/kg/injection, schedule: Q04DX003 (ip), vehicle: saline 97 % of control | dose: 75.0 mg/kg/injection, schedule: Q01DX001 (ip), vehicle: saline with Tween-80 90 % of control and 95 % of control | dose: 100.0 mg/kg/injection, schedule: Q01DX001 (ip), vehicle: saline with Tween-80 90 % of control | [1] 101 % of control | [2] 100 % of control | [3] 90 % of control

COc1ccc(C2C(C#N)C(=O)NC(=O)C2C#N)cc1OC (stereo not drawn)
inactive: [4] 98 % of control | [5] 107 % of control | [6] 111 % of control

CC(C)CN1CC(=O)N2Cc3ccccc3CN2C(=O)C1
inactive: dose: 50.0 mg/kg/injection, schedule: Q01DX005 (ip), vehicle: saline with Tween-80 101 % of control | dose: 100.0 mg/kg/injection, schedule: Q01DX005 (ip), vehicle: saline with Tween-80 106 % of control | dose: 200.0 mg/kg/injection, schedule: Q01DX005 (ip), vehicle: saline with Tween-80 103 % of control

CCC1COCC1Cc1cncn1C (stereo not drawn)
inactive: [7] 100 % of control | [8] 103 % of control

CCCCCCCCCCCCCCCCS(=O)(=O)c1ccc(S(=O)(=O)N/N=c2/sc3ccccc3n2C)cc1C(=O)O
inactive: dose: 6.25 mg/kg/injection, schedule: Q01DX009 (ip), vehicle: saline 103 % of control | dose: 12.5 mg/kg/injection, schedule: Q01DX009 (ip), vehicle: saline 97 % of control | dose: 25.0 mg/kg/injection, schedule: Q01DX009 (ip), vehicle: saline 94 % of control | [9] 88 % of control

Oc1ccccc1CNc1ncc(Cl)cc1Cl
inactive: [10] 100 % of control | [11] 88 % of control | dose: 200.0 mg/kg/injection, schedule: Q01DX009 (ip), vehicle: saline with Tween-80 94 % of control

COc1nc(Nc2ccc(/C=C/c3ccc(Nc4nc(OC)nc(N(CCO)CCO)n4)cc3S(=O)(=O)O)c(S(=O)(=O)O)c2)nc(N(CCO)CCO)n1
inactive: [1] 98 % of control | [2] 98 % of control | [3] 103 % of control

C=C1C(=O)OC2CC(C)C3OC3C(=O)C(C)(O)C(O)C(O)C12 (stereo not drawn) (tested in a mixture with another compound)
inactive: dose: 6.25 mg/kg/injection, schedule: Q01DX009 (ip), vehicle: Klucel (hydroxypropylcellulose) (HPC) 104 % of control | [12] 101 % of control and 117 % of control | [13] 110 % of control and 123 % of control | [4] 123 % of control | [6] 119 % of control

O=C(Nc1ccccc1O)/C(Cl)=C/Cl
inactive: dose: 33.0 mg/kg/injection, schedule: Q01DX009 (ip), vehicle: saline with Tween-80 120 % of control | dose: 75.0 mg/kg/injection, schedule: Q01DX009 (ip), vehicle: saline with Tween-80 115 % of control | dose: 100.0 mg/kg/injection, schedule: Q04DX003 (ip), vehicle: saline with Tween-80 105 % of control | dose: 200.0 mg/kg/injection, schedule: Q04DX003 (ip), vehicle: saline with Tween-80 120 % of control

O=C(O)COc1ccc(I)cc1I
inactive: dose: 100.0 mg/kg/injection, schedule: Q04DX003 (ip), vehicle: Klucel (hydroxypropylcellulose) (HPC) 110 % of control | dose: 200.0 mg/kg/injection, schedule: Q04DX003 (ip), vehicle: Klucel (hydroxypropylcellulose) (HPC) 91 % of control

O=C(Oc1cccc2cccnc12)c1ccc2ccccc2n1
inactive: dose: 100.0 mg/kg/injection, schedule: Q04DX002 (ip), vehicle: saline with Tween-80 100 % of control | dose: 200.0 mg/kg/injection, schedule: Q04DX002 (ip), vehicle: saline with Tween-80 96 % of control

CN(C)Cc1cc(O)c(CN(C)C)cc1O
inactive: dose: 3.13 mg/kg/injection, schedule: Q01DX009 (ip), vehicle: saline + Tween-80 + alcohol 100 % of control | dose: 6.25 mg/kg/injection, schedule: Q01DX009 (ip), vehicle: saline + Tween-80 + alcohol 101 % of control and 111 % of control | dose: 12.5 mg/kg/injection, schedule: Q01DX009 (ip), vehicle: other 123 % of control | dose: 12.5 mg/kg/injection, schedule: Q01DX009 (ip), vehicle: saline + Tween-80 + alcohol 102 % of control and 112 % of control | dose: 25.0 mg/kg/injection, schedule: Q01DX009 (ip), vehicle: other 105 % of control | dose: 25.0 mg/kg/injection, schedule: Q01DX009 (ip), vehicle: saline + Tween-80 + alcohol 107 % of control and 109 % of control | dose: 50.0 mg/kg/injection, schedule: Q01DX009 (ip), vehicle: other 105 % of control | dose: 100.0 mg/kg/injection, schedule: Q01DX009 (ip), vehicle: other 119 % of control

COc1ccc(N=Cc2cccs2)cc1
inactive: [4] 94 % of control | [5] 114 % of control | [6] 105 % of control

NNC(=O)C1CCN1C(c1ccccc1)c1ccccc1 (stereo not drawn)
inactive: [12] 106 % of control | [13] 102 % of control | [4] 102 % of control | [5] 95 % of control

O=C(O)c1c(Cl)c(Cl)c(Cl)c(Cl)c1-c1c2ccc(=O)cc-2oc2cc(O)ccc12
inactive: dose: 60.0 mg/kg/injection, schedule: Q01DX005 (ip), vehicle: saline with Tween-80 100 % of control | dose: 120.0 mg/kg/injection, schedule: Q01DX005 (ip), vehicle: saline with Tween-80 100 % of control | dose: 240.0 mg/kg/injection, schedule: Q01DX005 (ip), vehicle: saline with Tween-80 96 % of control

S=c1nc[nH]c2c1ncn2CN1CCCCC1
inactive: [10] 118 % of control | dose: 66.0 mg/kg/injection, schedule: Q01DX009 (ip), vehicle: saline sonified 122 % of control | dose: 150.0 mg/kg/injection, schedule: Q01DX009 (ip), vehicle: saline sonified 90 % of control

CC(C)=CCC(OC1OC(CO)C(O)C(O)C1O)C1=CC(=O)c2c(O)ccc(O)c2C1=O (stereo not drawn)
inactive: dose: 12.5 mg/kg/injection, schedule: Q04DX002 (ip), vehicle: saline with Tween-80 119 % of control | dose: 25.0 mg/kg/injection, schedule: Q04DX002 (ip), vehicle: saline with Tween-80 115 % of control

C=C1CCC2C(OC(=O)C2(COC(C)=O)OC(C)=O)C2C(=C)C(OC(C)=O)CC12 (stereo not drawn)
inactive: dose: 11.25 mg/kg/injection, schedule: Q01DX005 (ip), vehicle: Klucel (hydroxypropylcellulose) (HPC) 100 % of control | dose: 22.5 mg/kg/injection, schedule: Q01DX005 (ip), vehicle: Klucel (hydroxypropylcellulose) (HPC) 97 % of control | dose: 45.0 mg/kg/injection, schedule: Q01DX005 (ip), vehicle: Klucel (hydroxypropylcellulose) (HPC) 103 % of control | dose: 90.0 mg/kg/injection, schedule: Q01DX005 (ip), vehicle: Klucel (hydroxypropylcellulose) (HPC) 104 % of control | dose: 180.0 mg/kg/injection, schedule: Q01DX005 (ip), vehicle: Klucel (hydroxypropylcellulose) (HPC) 99 % of control

CN(C)c1ccc2nc3ccc(=O)cc-3sc2c1
inactive: dose: 12.5 mg/kg/injection, schedule: Q01DX009 (ip), vehicle: saline with Tween-80 100 % of control | dose: 25.0 mg/kg/injection, schedule: Q01DX009 (ip), vehicle: saline with Tween-80 108 % of control | [10] 108 % of control | [11] 120 % of control and 122 % of control

C#CCOCC1CO1 (stereo not drawn)
inactive: dose: 50.0 mg/kg/injection, schedule: Q01DX009 (ip), vehicle: saline 110 % of control | [9] 110 % of control | dose: 200.0 mg/kg/injection, schedule: Q01DX009 (ip), vehicle: saline 115 % of control

COc1cc(C2c3cc4c(cc3OC(C)(OC)C2C)OCO4)cc(OC)c1OC (stereo not drawn)
inactive: dose: 1.8 mg/kg/injection, schedule: Q01DX005 (ip), vehicle: saline 103 % of control | dose: 3.75 mg/kg/injection, schedule: Q01DX005 (ip), vehicle: saline 98 % of control | dose: 7.5 mg/kg/injection, schedule: Q01DX005 (ip), vehicle: saline 93 % of control | dose: 15.0 mg/kg/injection, schedule: Q01DX005 (ip), vehicle: saline 91 % of control | dose: 30.0 mg/kg/injection, schedule: Q01DX005 (ip), vehicle: saline 89 % of control | [7] 102 % of control and 86 % of control | [8] 86 % of control | dose: 240.0 mg/kg/injection, schedule: Q01DX005 (ip), vehicle: saline 92 % of control
